Results taken from BindingDB's records for PubMed 37116763 (n/a, 2023).
pEC50: −log10 of the molar value.

Each compound was assayed against T1, Nuclear factor erythroid 2-related factor 2 (Homo sapiens, UniProt Q16236) (assay: Activation of Nrf2 in human IMR-32-ARE-Luc cells by Bright-Glo luciferase assay).
T1 sequence (Q16236 whole entry): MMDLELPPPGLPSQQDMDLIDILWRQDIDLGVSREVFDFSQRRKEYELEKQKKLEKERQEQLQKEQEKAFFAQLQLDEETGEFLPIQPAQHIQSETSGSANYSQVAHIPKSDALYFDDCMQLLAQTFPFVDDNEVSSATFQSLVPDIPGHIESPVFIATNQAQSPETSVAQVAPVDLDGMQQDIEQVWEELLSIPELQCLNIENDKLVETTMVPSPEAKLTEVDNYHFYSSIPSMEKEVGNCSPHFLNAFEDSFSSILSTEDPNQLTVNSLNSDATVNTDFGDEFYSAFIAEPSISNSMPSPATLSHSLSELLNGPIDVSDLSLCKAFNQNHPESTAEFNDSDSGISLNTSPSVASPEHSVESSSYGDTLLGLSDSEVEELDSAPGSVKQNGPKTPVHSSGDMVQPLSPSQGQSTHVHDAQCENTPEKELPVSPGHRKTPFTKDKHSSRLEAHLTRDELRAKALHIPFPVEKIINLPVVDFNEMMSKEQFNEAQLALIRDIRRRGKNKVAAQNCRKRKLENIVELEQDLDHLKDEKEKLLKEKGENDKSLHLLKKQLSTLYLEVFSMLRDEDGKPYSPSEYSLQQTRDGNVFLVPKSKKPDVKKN

pEC50, < 4.70:
CC(C)CN[C@H]1CS(=O)(=O)C[C@@H]1C(=O)Nc1ccc(Cl)c(Cl)c1
O=C(O)CCCN[C@H]1CS(=O)(=O)C[C@@H]1S(=O)(=O)c1ccc(Cl)c(Cl)c1
O=C(O)CCCCCN[C@H]1CS(=O)(=O)C[C@@H]1S(=O)(=O)c1ccc(Cl)c(Cl)c1
